In patent US20240351986A1, “UREA COMPOUND CONTAINING 2-HETEROAROMATIC RING SUBSTITUTION, PREPARATION METHOD THEREFOR AND USE THEREOF” (SHANGHAI INSTITUTE OF MATERIA MEDICA, CHINESE ACADEMY OF …, priority 2021, published 2024):
Where two headings read alike, the source gives them in different places.

Experiments:
[1] = molecular target: T1, Recombinant human CDK9/cyclin T1 (Homo sapiens, UniProt P50750); assay: CDK9 enzyme inhibitory activity (ADP-Glo kinase assay); type: biochemical; conditions: for inhibition at 0.01 µM: read-out: Inhibition rate at different concentrations (%) 10 nM; for inhibition at 0.1 µM: read-out: Inhibition rate at different concentrations (%) 100 nM; for IC50: Table 2, read-out: CDK9/CycT1 IC50
T1 construct: purchased Carna bioscience 04-110

CDK1/cyclin B = CDK1/cyclin B (Homo sapiens, UniProt P06493); assay: CDK1 enzyme activity inhibition; type: biochemical; conditions: for inhibition at 0.01 µM: compound 10 nM, read-out: CDK1/Cyc B inhibition rate % 10 nM; for inhibition at 0.1 µM: compound 100 nM, read-out: CDK1/Cyc B inhibition rate % 100 nM
Procedure: (§1) CDK1,4,6,7 enzyme (CDK1/cyclin B, CDK4/cyclin D1, CDK6/cyclin D1, CDK7/cyclin H) activity was measured using a 5 μL enzyme system (50 mM HEPES, 10 mM MgCl2, 1 mM EGTA, 2 mM DTT and 0.0100 Tween 20, appropriate enzyme) either. A mixture of 2.5 μL of compound, 2.5 µL of substrate and ATP (final concentration of substrate 50 nM, final concentration of ATP 200 μM) was incubated at room temperature in the dark for 60 minutes. Then 5 μL EDTA stop solution diluted in 1× detection buffer (final concentration 6 mM) was added to each well, then an antibody diluted in 1× detection buffer (final concentration 2 nM) was added to incubate for 1 hour at room temperature in the dark, and then the corresponding enzyme activity inhibition rate or IC50 was calculated after measurement.

CDK4/cyclin D1 = CDK4/cyclin D1 (Homo sapiens, UniProt P11802); assay: CDK4 enzyme activity inhibition; type: biochemical; conditions: for inhibition at 0.01 µM: compound 10 nM, read-out: CDK4/Cyc D1 inhibition rate % 10 nM; for inhibition at 0.1 µM: compound 100 nM, read-out: CDK4/Cyc D1 inhibition rate % 100 nM
Procedure: as §1

CDK6/cyclin D1 = CDK6/cyclin D1 (Homo sapiens, UniProt Q00534); assay: CDK6 enzyme activity inhibition; type: biochemical; conditions: for inhibition at 0.01 µM: compound 10 nM, read-out: CDK6/Cyc D1 inhibition rate % 10 nM; for inhibition at 0.1 µM: compound 100 nM, read-out: CDK6/Cyc D1 inhibition rate % 100 nM
Procedure: as §1

CDK7/cyclin H = CDK7/cyclin H (Homo sapiens, UniProt P50613); assay: CDK7 enzyme activity inhibition; type: biochemical; conditions: for inhibition at 0.01 µM: compound 10 nM, read-out: CDK7/Cyc H inhibition rate % 10 nM; for inhibition at 0.1 µM: compound 100 nM, read-out: CDK7/Cyc H inhibition rate % 100 nM
Procedure: as §1

[2] = PK parameters in mice after iv and po administration (LC-MS/MS of plasma); type: in vivo; conditions: for AUC(0-t) / half-life / AUC(0-inf) / MRT inf / Cmax / Tmax: mouse, plasma; for AUC(0-inf): read-out: AUCINF_obs; for MRT inf: read-out: MRTINF_obs; for F: oral bioavailability
Procedure: The relevant pharmacokinetic parameters were calculated to examine the oral bioavailability and pharmacokinetic properties of the compound in mice.

[3] = Identification of metabolites in mouse plasma; type: in vivo; conditions: original form and metabolites of compound 47 in mouse plasma
WSU-DLCL2 cells = assay: Tumor cell proliferation inhibition in vitro (CCK-8); type: cell-based; conditions: Homo sapiens, WSUDLCL2, 72 hours
Procedure: Experimental method: WSU-DLCL2 cells in good condition were seeded in a 96-well plate at 20,000/well. The test compound was gradient diluted with PBS and then added to the wells. After incubating with the cells for 72 hours, 10 μl of CCK-8 reagent was added to each well. After further incubation, the absorbance was measured at 460 nm and the 4-parameter curve fitting of Softmax Pro software was used to calculate the proliferation inhibition IC50 of the test compound.

U2932 = assay: Tumor cell proliferation inhibition in vitro; type: cell-based; conditions: Homo sapiens
Pfeiffer = assay: Tumor cell proliferation inhibition in vitro; type: cell-based; conditions: Homo sapiens, Pfeiffer; proliferation
Will2 = assay: Tumor cell proliferation inhibition in vitro; type: cell-based
422 = assay: Tumor cell proliferation inhibition in vitro; type: cell-based; conditions: proliferation
[4] = CDK9 enzyme activity, compound 10 nM, average of two independent repeats
[5] = CDK9 enzyme activity, compound 100 nM, average of two independent repeats

T1 sequence (P50750 whole entry): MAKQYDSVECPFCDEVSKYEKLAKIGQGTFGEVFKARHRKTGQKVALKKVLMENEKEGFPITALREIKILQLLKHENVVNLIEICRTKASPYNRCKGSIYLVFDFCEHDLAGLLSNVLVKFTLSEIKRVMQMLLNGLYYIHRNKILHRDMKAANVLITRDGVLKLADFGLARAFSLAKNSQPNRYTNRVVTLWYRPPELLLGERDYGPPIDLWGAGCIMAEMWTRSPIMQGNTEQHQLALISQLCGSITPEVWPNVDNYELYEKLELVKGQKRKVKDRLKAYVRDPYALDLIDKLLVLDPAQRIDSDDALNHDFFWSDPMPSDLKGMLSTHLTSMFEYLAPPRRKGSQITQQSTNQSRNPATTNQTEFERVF
T1 sequence (O60563 whole entry partner): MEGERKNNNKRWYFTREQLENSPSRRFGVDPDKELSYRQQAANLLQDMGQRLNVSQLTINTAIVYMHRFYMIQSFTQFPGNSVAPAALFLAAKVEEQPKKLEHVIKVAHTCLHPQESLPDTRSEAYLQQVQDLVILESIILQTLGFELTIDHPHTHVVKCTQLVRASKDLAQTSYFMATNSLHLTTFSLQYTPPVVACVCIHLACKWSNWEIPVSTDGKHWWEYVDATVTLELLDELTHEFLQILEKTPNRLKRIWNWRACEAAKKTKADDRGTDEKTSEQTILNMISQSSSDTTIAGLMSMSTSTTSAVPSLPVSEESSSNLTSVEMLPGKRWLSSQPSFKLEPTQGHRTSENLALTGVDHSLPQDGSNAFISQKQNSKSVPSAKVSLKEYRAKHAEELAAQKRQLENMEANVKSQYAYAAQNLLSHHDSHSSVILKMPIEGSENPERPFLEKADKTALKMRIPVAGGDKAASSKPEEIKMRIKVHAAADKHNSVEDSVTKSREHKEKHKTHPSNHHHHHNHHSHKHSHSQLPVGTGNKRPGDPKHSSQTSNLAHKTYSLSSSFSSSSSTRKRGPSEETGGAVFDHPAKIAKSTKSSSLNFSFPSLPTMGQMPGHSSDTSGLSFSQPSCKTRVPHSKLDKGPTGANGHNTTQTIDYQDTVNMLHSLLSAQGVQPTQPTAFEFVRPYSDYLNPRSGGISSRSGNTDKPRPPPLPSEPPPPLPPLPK
Chain of CDK6/cyclin D1 (Q00534 whole entry, species assumed): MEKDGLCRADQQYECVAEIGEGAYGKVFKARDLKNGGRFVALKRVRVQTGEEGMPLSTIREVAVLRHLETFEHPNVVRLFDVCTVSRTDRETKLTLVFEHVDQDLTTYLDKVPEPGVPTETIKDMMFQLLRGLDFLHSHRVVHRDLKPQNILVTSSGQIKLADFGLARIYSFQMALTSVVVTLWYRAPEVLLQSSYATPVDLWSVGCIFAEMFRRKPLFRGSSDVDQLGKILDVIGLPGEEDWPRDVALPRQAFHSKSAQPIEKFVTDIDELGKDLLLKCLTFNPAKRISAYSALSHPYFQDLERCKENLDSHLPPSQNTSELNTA
Chain of CDK6/cyclin D1 (P24385 whole entry partner, species assumed): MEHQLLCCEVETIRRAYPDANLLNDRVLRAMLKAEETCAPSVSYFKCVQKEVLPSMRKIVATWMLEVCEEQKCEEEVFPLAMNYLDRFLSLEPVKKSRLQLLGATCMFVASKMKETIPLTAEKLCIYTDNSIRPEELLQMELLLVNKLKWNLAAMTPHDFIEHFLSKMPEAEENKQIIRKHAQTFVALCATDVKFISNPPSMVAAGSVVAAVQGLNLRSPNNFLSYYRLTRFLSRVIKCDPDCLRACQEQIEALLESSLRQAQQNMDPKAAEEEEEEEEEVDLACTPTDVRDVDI
Chain of CDK7/cyclin H (P50613 whole entry, species assumed): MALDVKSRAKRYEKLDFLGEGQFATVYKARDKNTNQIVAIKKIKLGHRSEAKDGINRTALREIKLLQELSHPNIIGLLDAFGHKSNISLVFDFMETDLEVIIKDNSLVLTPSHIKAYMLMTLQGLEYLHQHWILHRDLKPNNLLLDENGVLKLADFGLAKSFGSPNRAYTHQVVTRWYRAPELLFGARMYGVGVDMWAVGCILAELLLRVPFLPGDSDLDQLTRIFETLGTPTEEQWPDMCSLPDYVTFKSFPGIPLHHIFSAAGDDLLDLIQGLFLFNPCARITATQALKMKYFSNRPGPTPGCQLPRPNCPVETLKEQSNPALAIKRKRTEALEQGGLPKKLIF
Chain of CDK7/cyclin H (P51946 whole entry partner, species assumed): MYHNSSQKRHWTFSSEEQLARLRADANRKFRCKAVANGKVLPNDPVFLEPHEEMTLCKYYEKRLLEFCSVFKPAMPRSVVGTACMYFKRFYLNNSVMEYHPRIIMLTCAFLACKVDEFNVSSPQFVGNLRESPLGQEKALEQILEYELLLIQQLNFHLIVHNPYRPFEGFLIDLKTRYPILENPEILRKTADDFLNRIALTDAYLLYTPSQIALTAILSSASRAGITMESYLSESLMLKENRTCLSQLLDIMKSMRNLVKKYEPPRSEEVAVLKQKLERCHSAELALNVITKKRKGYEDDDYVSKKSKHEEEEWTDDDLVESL
Chain of CDK1/cyclin B (P06493 whole entry, species assumed): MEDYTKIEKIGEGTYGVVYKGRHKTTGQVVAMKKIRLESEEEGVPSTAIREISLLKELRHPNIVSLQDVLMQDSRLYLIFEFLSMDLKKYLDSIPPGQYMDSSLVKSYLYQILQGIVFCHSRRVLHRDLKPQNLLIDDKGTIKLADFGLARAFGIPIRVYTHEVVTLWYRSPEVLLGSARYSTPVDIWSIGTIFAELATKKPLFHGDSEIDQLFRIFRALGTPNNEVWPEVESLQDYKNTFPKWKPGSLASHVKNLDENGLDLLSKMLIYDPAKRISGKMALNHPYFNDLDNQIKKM
Chain of CDK1/cyclin B (P14635 whole entry partner, species assumed): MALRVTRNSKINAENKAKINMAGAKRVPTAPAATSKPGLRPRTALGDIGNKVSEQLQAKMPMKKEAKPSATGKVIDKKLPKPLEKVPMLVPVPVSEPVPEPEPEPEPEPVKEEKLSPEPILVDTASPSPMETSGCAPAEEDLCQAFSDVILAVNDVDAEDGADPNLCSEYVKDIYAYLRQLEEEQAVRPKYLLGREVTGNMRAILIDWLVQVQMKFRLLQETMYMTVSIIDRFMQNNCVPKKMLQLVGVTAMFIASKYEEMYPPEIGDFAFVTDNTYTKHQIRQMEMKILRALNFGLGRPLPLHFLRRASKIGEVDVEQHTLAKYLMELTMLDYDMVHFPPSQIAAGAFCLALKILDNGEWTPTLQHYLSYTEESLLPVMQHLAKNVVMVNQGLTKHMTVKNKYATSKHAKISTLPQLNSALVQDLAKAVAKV
Chain of CDK4/cyclin D1 (P11802 whole entry, species assumed): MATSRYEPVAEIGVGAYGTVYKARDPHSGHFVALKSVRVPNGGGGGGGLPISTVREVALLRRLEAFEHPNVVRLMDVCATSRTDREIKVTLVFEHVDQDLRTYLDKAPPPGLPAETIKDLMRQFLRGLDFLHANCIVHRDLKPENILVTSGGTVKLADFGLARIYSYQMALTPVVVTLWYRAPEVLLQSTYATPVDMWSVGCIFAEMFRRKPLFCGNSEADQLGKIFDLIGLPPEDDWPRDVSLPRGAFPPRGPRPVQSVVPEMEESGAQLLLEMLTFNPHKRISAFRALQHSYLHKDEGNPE
Chain of CDK4/cyclin D1 (P24385 whole entry partner, species assumed): as the sequence (P24385 whole entry partner, species assumed) above

Row | inhibition at 0.01 µM [1, 4] [%] | inhibition at 0.1 µM [1, 5] [%] | IC50 [1] [nM] | inhibition at 0.01 µM (CDK1/cyclin B) [%] | inhibition at 0.1 µM (CDK1/cyclin B) [%] | inhibition at 0.01 µM (CDK4/cyclin D1) [%] | inhibition at 0.1 µM (CDK4/cyclin D1) [%] | inhibition at 0.01 µM (CDK6/cyclin D1) [%] | inhibition at 0.1 µM (CDK6/cyclin D1) [%] | inhibition at 0.01 µM (CDK7/cyclin H) [%] | inhibition at 0.1 µM (CDK7/cyclin H) [%] | SMILES | other results
1 | 68 | 85 | 5.3 | 4.7 | 47.4 | 9.5 | 18 | 4 | 19.1 | -4 | 44 | CC(=O)N[C@H]1CC[C@@H](NC(=O)Nc2cc(-c3cnn4c3CC(C)(C)C4)c(Cl)cn2)CC1 [Example 67, N-((1s,4s)-4-(3-(5-chloro-4-(5,5-dimethyl-5,6-dihydro-4H-pyrrolo[1,2-b]pyrazol-3-yl)pyridin-2-yl)ureido)cyclohexyl)acetamide] | –
2 | 58.3 | 91.5 | – | – | – | – | – | – | – | – | – | CC(=O)NC1CCC(NC(=O)Nc2cc(-c3cnn4c3CC3(CC3)C4)c(Cl)cn2)CC1 (stereo not drawn) [Example 81, N-((1r,4r)-4-(3-(5-chloro-4-(4′H,6′H-spiro[cyclopropane-1,5′-pyrrolo[1,2-b]pyrazole]-3′-yl)pyridin-2-yl)ureido)cyclohexyl)acetamide] | –
3 | 58 | 89.2 | – | – | – | – | – | – | – | – | – | CC1(C)Cc2c(-c3cc(NC(=O)NC4CCC(NC(=O)C5CC5)CC4)ncc3Cl)cnn2C1 (stereo not drawn) [Example 49] | –
4 | 53.2 | 95.1 | – | – | – | – | – | – | – | – | – | CC1(C)Cc2c(-c3cc(NC(=O)NC4CCC(NC(=O)C5COC5)CC4)ncc3Cl)cnn2C1 (stereo not drawn) [Example 50, N-((1r,4r)-4-(3-(5-chloro-4-(5,5-dimethyl-5,6-dihydro-4H-pyrrolo[1,2-b]pyrazol-3-yl)pyridin-2-yl)ureido)cyclohexyl) oxetane-3-carboxamide] | –
5 | 61.3 | 93.1 | – | – | – | – | – | – | – | – | – | COCC(C)NC1CCC(NC(=O)Nc2cc(-c3cnn4c3CC(C)(C)C4)c(Cl)cn2)CC1 (stereo not drawn) [Example 55, 1-(5-chloro-4-(5,5-dimethyl-5,6-dihydro-4H-pyrrolo[1,2-b]pyrazol-3-yl)pyridin-2-yl)-3-((1r,4r)-4-((1-methoxypropan-2-yl)amino)cyclohexyl)urea] | –

The remaining lines, values behind:

Row | SMILES | inhibition at 0.01 µM [1, 4] [%] | inhibition at 0.1 µM [1, 5] [%] | IC50 [1] [nM] | inhibition at 0.01 µM (CDK1/cyclin B) [%] | inhibition at 0.1 µM (CDK1/cyclin B) [%] | inhibition at 0.01 µM (CDK4/cyclin D1) [%] | inhibition at 0.1 µM (CDK4/cyclin D1) [%] | inhibition at 0.01 µM (CDK6/cyclin D1) [%] | inhibition at 0.1 µM (CDK6/cyclin D1) [%] | inhibition at 0.01 µM (CDK7/cyclin H) [%] | inhibition at 0.1 µM (CDK7/cyclin H) [%] | other results
6 | COCCN[C@H]1CC[C@H](NC(=O)Nc2cc(-c3ccc(F)cc3OC)ccn2)CC1 [Example 3, 1-(4-(4-fluoro-2-methoxyphenyl)pyridin-2-yl)-3-((1r,4r)-4-((2-methoxyethyl)amino)cyclohexyl) urea] | 50.2 | 96.7 | 6.2 | -1.9 | -1.4 | 7.2 | 25.1 | 9.9 | 18.9 | -24.5 | -2.6 | –
7 | COc1cc(F)ccc1-c1ccnc(NC(=O)N[C@H]2CC[C@H](N)CC2)c1 [Example 2, 1-((1r,4r)-4-aminocyclohexyl)-3-(4-(4-fluoro-2-methoxyphenyl)pyridin-2-yl)urea] | 57 | 88 | 5.7 | 1.3 | 7.8 | -7 | 1.8 | 2.6 | 13.8 | -6.6 | -3.8 | –
8 | COCCN[C@H]1CC[C@H](NC(=O)Nc2cc(-c3cnn4c3CC(C)(C)C4)c(Cl)cn2)CC1 [Example 46, 1-(5-chloro-4-(5,5-dimethyl-5,6-dihydro-4H-pyrrolo[1,2-b]pyrazol-3-yl)pyridin-2-yl)-3-((1r,4r)-4-((2-methoxy)amino)cyclohexyl)urea] | 55 | 94 | 12 | -5.1 | 11.6 | 11.1 | 20.9 | 6.2 | 21.6 | 24 | 59 | plasma clearance rates compared with AZD4573 [2]: lower; CL_obs ([2]; i.v.): 68.6 mL/min/kg; Vss_obs ([2]; i.v.): 3469 mL/kg; AUC(0-t) ([2]; iv, 3 mg/kg): 728 ng·h/mL; half-life ([2]; iv, 3 mg/kg): 125 min; AUC(0-inf) ([2]; iv, 3 mg/kg, i.v.): 729 ng·h/mL; MRT inf ([2]; iv, 3 mg/kg, i.v.): 50.4 min; AUC(0-t) ([2]; po): 601 ng·h/mL; Cmax ([2]; po): 382 ng/mL; Tmax ([2]; po): 60 min; half-life ([2]; po, 10 mg/kg): 143 min; AUC(0-inf) ([2]; po): 602 ng·h/mL; MRT inf ([2]; po): 102 min; F [2]: 24.8%
9 | CC(=O)N[C@H]1CC[C@H](NC(=O)Nc2cc(-c3cnn4c3CC(C)(C)C4)c(Cl)cn2)CC1 [Example M0] | – | – | – | – | – | – | – | – | – | – | – | Area (254 nm), value in parentheses, iv ([3]; iv): (532); MS Area iv ([3]; iv): 62967; MS Area po ([3]; po): 811
10 | CC(=O)N[C@@H]1CCC[C@H](C(=O)Nc2cc(-c3cnn4c3CC(C)(C)C4)c(Cl)cn2)C1 [AZD4573, reference compound] | – | – | – | – | – | – | – | – | – | – | – | IC50 (WSU-DLCL2 cells): < 3 nM; IC50 (U2932): 2.32 nM; IC50 (Pfeiffer): 2.43 nM; IC50 (Will2): 5.75 nM; IC50 422: 1.81 nM; CL_obs ([2]; i.v.): 119 mL/min/kg; Vss_obs ([2]; i.v.): 820 mL/kg; AUC(0-t) ([2]; iv, 3 mg/kg): 416 ng·h/mL; half-life ([2]; iv, 3 mg/kg): 6.6 min; AUC(0-inf) ([2]; iv, 3 mg/kg, i.v.): 419 ng·h/mL; MRT inf ([2]; iv, 3 mg/kg, i.v.): 6.6 min; AUC(0-t) ([2]; po): 73.2 ng·h/mL; Cmax ([2]; po): 219 ng/mL; Tmax ([2]; po): 15 min; half-life ([2]; po, 10 mg/kg): 16.2 min; AUC(0-inf) ([2]; po): 73.6 ng·h/mL; MRT inf ([2]; po): 25.2 min; F [2]: 5.28%
11 | COCC(C)NC1CCC(NC(=O)Nc2cc(-c3ccc(F)cc3OC)c(Cl)cn2)CC1 (stereo not drawn) [Example 21, 1-(5-chloro-4-(4-fluoro-2-methoxyphenyl)pyridin-2-yl)-3-((1r,4r)-4-((1-methoxypropan-2-yl)amino)cyclohexyl)urea] | 45.2 | 91 | – | – | – | – | – | – | – | – | – | –
12 | Cn1cc(-c2ccnc(NC(=O)NC3CCC(N)CC3)c2)cn1 (stereo not drawn) [Example 13, 1-((1r,4r)-4-aminocyclohexyl)-3-(4-(1-methyl-1H-pyrazol-4-yl)pyridin-2-yl) urea] | -17.5 | 72.3 | – | – | – | – | – | – | – | – | – | –
13 | CC1(C)Cc2c(-c3cc(NC(=O)NC4CCC(N)CC4)ncc3Cl)cnn2C1 (stereo not drawn) [Example 65, 1-((1s,4s)-4-aminocyclohexyl)-3-(5-chloro-4-(5,5-dimethyl-5,6-dihydro-4H-pyrrolo[1,2-b]pyrazol-3-yl)pyridin-2-yl)urea] | – | – | – | – | – | – | – | – | – | – | – | Inhibition rate at different concentrations (%) 10 nM ([1]; CDK9 enzyme activity, compound 10 nM, average of two independent repeats, 0.01 µM): 58.0%; Inhibition rate at different concentrations (%) 100 nM ([1]; CDK9 enzyme activity, compound 100 nM, average of two independent repeats, 0.1 µM): 84.0%
